Assay results taken from PubChem BioAssay AID1745844 (Carcinogenic Potency Database (CPDB), 2022).
Values joined by “and” are separate entries in the source; they are usually repeats but may differ in a detail not shown here. Equal entries are not always repeated. Active and inactive are the calls of the source. The rule behind the calls is not given here.

Test system: rodent lifetime carcinogenesis bioassay, tumor incidence TD50
Assay: chronic cancer bioassays in animals – CPDB, compiled studies (AID 1745844)

Cc1cc(O)cc(C)c1N(C)C
TD50 (mouse, strain B6AKF1, females, oral dosing, site: any site (literature study), lesion: several types, types named in the paper, dosed 76 weeks, study length 76 weeks): 220 mg/kg/day (inactive)
carcinogen call (mouse, strain B6AKF1, females, oral dosing, site: liver, lesion: hepatoma, dosed 76 weeks, study length 76 weeks): negative (inactive)
carcinogen call (mouse, strain B6AKF1, females, oral dosing, site: lung, lesion: adenoma, dosed 76 weeks, study length 76 weeks): negative (inactive)
TD50 (mouse, strain B6AKF1, males, oral dosing, site: any site (literature study), lesion: several types, types named in the paper, dosed 76 weeks, study length 76 weeks): 1190 mg/kg/day (inactive)
TD50 (mouse, strain B6AKF1, males, oral dosing, site: liver, lesion: hepatoma, dosed 76 weeks, study length 76 weeks): 207 mg/kg/day (inactive)
carcinogen call (mouse, strain B6AKF1, males, oral dosing, site: lung, lesion: adenoma, dosed 76 weeks, study length 76 weeks): negative (inactive)
TD50 (mouse, strain B6C3F1, females, oral dosing, site: any site (literature study), lesion: several types, types named in the paper, dosed 76 weeks, study length 76 weeks): 265 mg/kg/day (inactive)
carcinogen call (mouse, strain B6C3F1, females, oral dosing, site: liver, lesion: hepatoma, dosed 76 weeks, study length 76 weeks): negative (inactive)
TD50 (mouse, strain B6C3F1, females, oral dosing, site: lung, lesion: adenoma, dosed 76 weeks, study length 76 weeks): 265 mg/kg/day (inactive)
TD50 (mouse, strain B6C3F1, males, oral dosing, site: any site (literature study), lesion: several types, types named in the paper, dosed 76 weeks, study length 76 weeks): 34.8 mg/kg/day (inactive)
TD50 (mouse, strain B6C3F1, males, oral dosing, site: liver, lesion: hepatoma, dosed 76 weeks, study length 76 weeks): 247 mg/kg/day (inactive)
TD50 (mouse, strain B6C3F1, males, oral dosing, site: lung, lesion: adenoma, dosed 76 weeks, study length 76 weeks): 56.1 mg/kg/day (inactive)

CCCCC1(COC(=O)CCC(=O)O)C(=O)N(c2ccccc2)N(c2ccccc2)C1=O
carcinogen call (rat, strain F344/DuCrj, females, in feed, site: liver, lesion: one or several types, types not named, dosed 104 weeks, study length 104 weeks): negative (inactive)
TD50 (rat, strain F344/DuCrj, males, in feed, site: adrenal gland, lesion: pheochromocytoma, dosed 104 weeks, study length 104 weeks): 471 mg/kg/day (inactive)
carcinogen call (rat, strain F344/DuCrj, males, in feed, site: liver, lesion: hepatocellular adenoma, dosed 104 weeks, study length 104 weeks): negative (inactive)
carcinogen call (rat, strain F344/DuCrj, males, in feed, site: liver, lesion: hepatocellular carcinoma, dosed 104 weeks, study length 104 weeks): negative (inactive)

CCC[N+](=O)[O-]
carcinogen call (rat, strain Long-Evans BLU:(LE), females, inhaled, site: liver, lesion: hepatocellular carcinoma, dosed 52 weeks, study length 52 weeks): negative (inactive)
carcinogen call (rat, strain Long-Evans BLU:(LE), females, inhaled, site: liver, lesion: hepatocellular carcinoma, dosed 52 weeks, study length 93 weeks): negative (inactive)
carcinogen call (rat, strain Long-Evans BLU:(LE), females, inhaled, site: liver, lesion: hepatocellular carcinoma, dosed 78 weeks, study length 78 weeks): negative (inactive)
carcinogen call (rat, strain Long-Evans BLU:(LE), females, inhaled, site: liver, lesion: hepatocellular carcinoma, dosed 93 weeks, study length 93 weeks): negative (inactive)
carcinogen call (rat, strain Long-Evans BLU:(LE), males, inhaled, site: liver, lesion: hepatocellular carcinoma, dosed 52 weeks, study length 52 weeks): negative (inactive)
carcinogen call (rat, strain Long-Evans BLU:(LE), males, inhaled, site: liver, lesion: hepatocellular carcinoma, dosed 52 weeks, study length 93 weeks): negative (inactive)
carcinogen call (rat, strain Long-Evans BLU:(LE), males, inhaled, site: liver, lesion: hepatocellular carcinoma, dosed 78 weeks, study length 78 weeks): negative (inactive)
carcinogen call (rat, strain Long-Evans BLU:(LE), males, inhaled, site: liver, lesion: hepatocellular carcinoma, dosed 93 weeks, study length 93 weeks): negative (inactive)
TD50 (rat, strain Sprague-Dawley, males, by gavage, site: liver, lesion: hepatocellular adenoma, dosed 26 weeks, study length 77 weeks): 0.872 mg/kg/day (inactive)

CCOC(=O)N(CC)N=O
TD50 (rat, strain Donryu, females, in drinking water, site: any site (literature study), lesion: several types, types named in the paper, dosed 51 weeks, study length 60 weeks): 0.0784 mg/kg/day
TD50 (rat, strain Donryu, females, in drinking water, site: duodenum, lesion: adenocarcinoma, dosed 51 weeks, study length 60 weeks): 0.555 mg/kg/day
TD50 (rat, strain Donryu, females, in drinking water, site: esophagus, lesion: papilloma, dosed 51 weeks, study length 60 weeks): 0.473 mg/kg/day
TD50 (rat, strain Donryu, females, in drinking water, site: esophagus, lesion: squamous-cell carcinoma, dosed 51 weeks, study length 60 weeks): 0.54 mg/kg/day
TD50 (rat, strain Donryu, females, in drinking water, site: forestomach, lesion: papilloma, dosed 51 weeks, study length 60 weeks): 0.508 mg/kg/day
TD50 (rat, strain Donryu, females, in drinking water, site: forestomach, lesion: squamous-cell carcinoma, dosed 51 weeks, study length 60 weeks): 0.248 mg/kg/day
TD50 (rat, strain Donryu, females, in drinking water, site: several sites, sites named in the paper, lesion: papilloma, dosed 51 weeks, study length 60 weeks): 0.339 mg/kg/day
TD50 (rat, strain Donryu, females, in drinking water, site: several sites, sites named in the paper, lesion: squamous-cell carcinoma, dosed 51 weeks, study length 60 weeks): 0.164 mg/kg/day
TD50 (rat, strain F344/DuCrj, females, in drinking water, site: any site (literature study), lesion: one or several types, types not named, dosed 97 weeks, study length 112 weeks): 0.135 mg/kg/day
TD50 (rat, strain F344/DuCrj, females, in drinking water, site: esophagus, lesion: papilloma, dosed 97 weeks, study length 112 weeks): 0.514 mg/kg/day
TD50 (rat, strain F344/DuCrj, females, in drinking water, site: esophagus, lesion: squamous-cell carcinoma, dosed 97 weeks, study length 112 weeks): 0.139 mg/kg/day
TD50 (rat, strain F344/DuCrj, females, in drinking water, site: forestomach, lesion: papilloma, dosed 97 weeks, study length 112 weeks): 0.0796 mg/kg/day
TD50 (rat, strain F344/DuCrj, females, in drinking water, site: forestomach, lesion: squamous-cell carcinoma, dosed 97 weeks, study length 112 weeks): 0.213 mg/kg/day
TD50 (rat, strain F344/DuCrj, females, in drinking water, site: oral cavity, lesion: papilloma, dosed 97 weeks, study length 112 weeks): 3.02 mg/kg/day
TD50 (rat, strain F344/DuCrj, females, in drinking water, site: oral cavity, lesion: squamous-cell carcinoma, dosed 97 weeks, study length 112 weeks): 0.784 mg/kg/day
TD50 (rat, strain F344/DuCrj, females, in drinking water, site: upper gastrointestinal tract, lesion: several types, types named in the paper, dosed 97 weeks, study length 112 weeks): 0.0553 mg/kg/day

C=C/C=N/O
TD50 (rat, strain Fischer 344, females, in drinking water, site: liver, lesion: hepatocellular carcinoma, dosed 104 weeks, study length 129 weeks): 104 mg/kg/day
TD50 (rat, strain Fischer 344, females, in drinking water, site: liver, lesion: hyperplastic nodule, dosed 30 weeks, study length 123 weeks): 41.9 mg/kg/day
TD50 (rat, strain Fischer 344, females, in drinking water, site: liver, lesion: hyperplastic nodule, dosed 104 weeks, study length 129 weeks): 43.8 mg/kg/day
TD50 (rat, strain Fischer 344, females, in drinking water, site: liver, lesion: several types, types named in the paper, dosed 104 weeks, study length 129 weeks): 27.1 mg/kg/day
TD50 (rat, strain Fischer 344, males, in drinking water, site: liver, lesion: hepatocellular carcinoma, dosed 30 weeks, study length 123 weeks): 50.7 mg/kg/day
TD50 (rat, strain Fischer 344, males, in drinking water, site: liver, lesion: hepatocellular carcinoma, dosed 104 weeks, study length 128 weeks): 72.6 mg/kg/day
TD50 (rat, strain Fischer 344, males, in drinking water, site: liver, lesion: hyperplastic nodule, dosed 30 weeks, study length 123 weeks): 29.3 mg/kg/day
TD50 (rat, strain Fischer 344, males, in drinking water, site: liver, lesion: hyperplastic nodule, dosed 104 weeks, study length 128 weeks): 64.9 mg/kg/day
TD50 (rat, strain Fischer 344, males, in drinking water, site: liver, lesion: several types, types named in the paper, dosed 30 weeks, study length 123 weeks): 16.4 mg/kg/day
TD50 (rat, strain Fischer 344, males, in drinking water, site: liver, lesion: several types, types named in the paper, dosed 104 weeks, study length 128 weeks): 30.4 mg/kg/day

C=CCOc1ccccc1OCC(O)CNC(C)C (centres undefined)
TD50 (mouse, strain CF-1, females, in feed, site: liver, lesion: carcinoma, dosed 78 weeks, study length 91 weeks): 2400 mg/kg/day (inactive)
carcinogen call (mouse, strain CF-1, females, in feed, site: liver, lesion: one or several types, types not named, dosed 78 weeks, study length 78 weeks): negative (inactive)
carcinogen call (mouse, strain CF-1, females, in feed, site: lung, lesion: adenoma, dosed 78 weeks, study length 91 weeks): negative (inactive)
TD50 (mouse, strain CF-1, females, in feed, site: lung, lesion: carcinoma, dosed 78 weeks, study length 78 weeks): 425 mg/kg/day (inactive)
carcinogen call (mouse, strain CF-1, females, in feed, site: lung, lesion: neurofibrosarcoma, dosed 78 weeks, study length 91 weeks): negative (inactive)
TD50 (mouse, strain CF-1, males, in feed, site: liver, lesion: carcinoma, dosed 78 weeks, study length 78 weeks): 2620 mg/kg/day (inactive)
TD50 (mouse, strain CF-1, males, in feed, site: liver, lesion: parenchymal adenoma, dosed 78 weeks, study length 91 weeks): 2120 mg/kg/day (inactive)
carcinogen call (mouse, strain CF-1, males, in feed, site: lung, lesion: adenoma, dosed 78 weeks, study length 78 weeks): negative (inactive)
carcinogen call (mouse, strain CF-1, males, in feed, site: lung, lesion: adenoma, dosed 78 weeks, study length 91 weeks): negative (inactive)
carcinogen call (mouse, strain CF-1, males, in feed, site: lung, lesion: carcinoma, dosed 78 weeks, study length 78 weeks): negative (inactive)
carcinogen call (rat, strain Charles River CD (Sprague-Dawley), females, in feed, site: liver, lesion: one or several types, types not named, dosed 78 weeks, study length 78 weeks): negative (inactive)
TD50 (rat, strain Charles River CD (Sprague-Dawley), males, in feed, site: liver, lesion: hepatocellular adenoma, dosed 78 weeks, study length 78 weeks): 1680 mg/kg/day (inactive)

Nc1ccc(Oc2ccc(Cl)cc2)cc1
TD50 (mouse, strain CD-1 HaM/ICR, females, in feed, site: all sites, lesion: all vascular tumors, dosed 68 weeks, study length 86 weeks): 346 mg/kg/day
TD50 (mouse, strain CD-1 HaM/ICR, females, in feed, site: any site (literature study), lesion: several types, types named in the paper, dosed 68 weeks, study length 86 weeks): 598 mg/kg/day
TD50 (mouse, strain CD-1 HaM/ICR, females, in feed, site: liver, lesion: several types, types named in the paper, dosed 68 weeks, study length 86 weeks): 905 mg/kg/day
TD50 (mouse, strain CD-1 HaM/ICR, females, in feed, site: urinary bladder, lesion: several types, types named in the paper, dosed 68 weeks, study length 86 weeks): 1130 mg/kg/day
carcinogen call (mouse, strain CD-1 HaM/ICR, males, in feed, site: any site (literature study), lesion: several types, types named in the paper, dosed 51 weeks, study length 55 weeks): negative (inactive)
carcinogen call (mouse, strain CD-1 HaM/ICR, males, in feed, site: liver, lesion: several types, types named in the paper, dosed 51 weeks, study length 55 weeks): negative (inactive)
carcinogen call (mouse, strain CD-1 HaM/ICR, males, in feed, site: lung, lesion: several types, types named in the paper, dosed 51 weeks, study length 55 weeks): negative (inactive)
TD50 (rat, strain Charles River CD (Sprague-Dawley), males, in feed, site: any site (literature study), lesion: several types, types named in the paper, dosed 77 weeks, study length 98 weeks): 25.1 mg/kg/day
TD50 (rat, strain Charles River CD (Sprague-Dawley), males, in feed, site: liver, lesion: hepatoma, dosed 77 weeks, study length 98 weeks): 37.9 mg/kg/day and 37.6 mg/kg/day
TD50 (rat, strain Charles River CD (Sprague-Dawley), males, in feed, site: liver, lesion: several types, types named in the paper, dosed 77 weeks, study length 98 weeks): 37.9 mg/kg/day

N#[N+]c1cc(CCN)ccc1[O-]
TD50 (rat, strain F344/DuCrj, males, in drinking water, site: oral cavity, lesion: squamous-cell carcinoma, dosed 116 weeks, study length 116 weeks): 37.6 mg/kg/day
